The record followed here is patent publication US20180038865A1, “CD9 AS A THERAPEUTIC TARGET FOR HEMATOLOGIC MALIGNANCIES” (The Chinese and Knowledge Transfer Services, priority 2016, published 2018).

Common to all, as to assay: Apoptosis assay (Annexin V/7-AAD), vincristine, monoculture or stromal co-culture
What all share (format): cell-based, human

Test [1] relates to SUP-B15. The settings on record: vincristine 12.5 nM, 3 days. The method, then: (§1) […]: In vitro and in vivo effects of CD9 antibody on chemosensitivity of B-ALL cells. (FIG. 4A) B-ALL cell lines were treated with vincristine (VCR, 12.5 nM) for 3 days in monoculture or stromal co-culture. Apoptosis was monitored by Annexin V/7-AAD staining (n=4). (FIG. 4B) 697 cells were treated with VCR (12.5 nM) in stromal co-cultures for 3 days, in the presence of control IgG or anti-CD9 (ALB6, 10 μg/mL), and measured for apoptosis (n=4). (FIG. 4C) NOD/SCID mice were transplanted with 697 cells and treated with IgG alone, anti-CD9 alone (ALB6, 20 μg/mouse), IgG+VCR (0.8 mg/kg) or anti-CD9 + VCR. Antibodies and VCR were given twice a week for 2 weeks. Animal survival was analyzed (4-5 mice/group). Data are means±SEM. Statistics: (A and B) two-tailed, paired Student's t-test, (FIG. 4C) log-rank test. *P<0.05, **P<0.01.
(§2) B-ALL cell lines (1×10^5) were cultured with or without monolayers of BM stromal cells, and exposed to 10 μg/mL of control IgG or CD9 antibody (ALB6). Cells were then treated with vincristine (12.5 nM; Sigma Aldrich) for 3 days at 37° C. Apoptotic cell death was monitored using the Annexin V/7-AAD Apoptosis Detection Kit (BD Biosciences).

The subject of test [2] is 697 cells. The settings on record: vincristine 12.5 nM, 3 days. The method, then:
as §1, §2

Test [3] has as its system RS4;11. The settings on record: vincristine 12.5 nM, 3 days. The method, then:
as §1, §2

The test system of test [4] is Reh cells. The note with it: vincristine 12.5 nM, 3 days; CD9low Reh. The procedure: as §1, §2

As for `CC[C@]1(O)C[C@H]2CN(CCc3c([nH]c4ccccc34)[C@@](C(=O)OC)(c3cc4c(cc3OC)N(C=O)[C@H]3[C@@](O)(C(=O)OC)[C@H](OC(C)=O)[C@]5(CC)C=CCN6CC[C@]43[C@@H]65)C2)C1` [vincristine], the “vincristine-mediated apoptotic cell death, stromal co-culture vs monoculture” value in test [1], in test [2] and in test [3] was “reduced” each time. Besides, the “protective effect of stromal cells against vincristine-mediated apoptotic cell death” value in test [4] was “absent”.
